According to patent publication US9051333B2, “6,7-dihydroimidazo [2,1-b] [1,3]oxazine bactericides” (OTSUKA PHARMACEUTICAL CO., LTD., priority 2011, dated 2015):
Values after ≈ are worked out from the molar mass of the structure shown.

These compounds were tested on Mycobacterium tuberculosis (M. tuberculosis kurono) (assay: Antimicrobial Assay (Agar Plate Dilution Method), M. tuberculosis kurono). Conditions: 336 h, M. tuberculosis kurono, 7H11 agar medium, cultured at 37° C. for 14 days, read-out: Minimum Inhibitory Concentration.
Format: cell-based

Row | SMILES | MIC
1 | O=[N+]([O-])c1cn2c(n1)OC(COc1ccc(N3CCC(Oc4ccc(OC(F)(F)F)cc4)CC3)cc1)CC2 (stereo not shown) [Example 1, 2-nitro-7-{4-[4-(4-trifluoromethoxyphenoxy)piperidin-1-yl]phenoxymethyl}-6,7-dihydro-5H-imidazo[2,1-b][1,3]oxazine] | 0.024 µg/mL (≈ 0.0449 µM)
2 | O=[N+]([O-])c1cn2c(n1)OC(COc1ccc(N3CCN(Cc4ccc(OC(F)(F)F)cc4)CC3)cc1)CC2 (stereo not shown) [Example 3, 2-nitro-7-{4-[4-(4-trifluoromethoxybenzyl)piperazin-1-yl]phenoxymethyl}-6,7-dihydro-5H-imidazo[2,1-b][1,3]oxazine] | 0.05 µg/mL (≈ 0.0937 µM)
3 | O=[N+]([O-])c1cn2c(n1)OC(COc1ccc(-c3coc(COc4ccc(OC(F)(F)F)cc4)n3)cc1)CC2 (stereo not shown) [Example 53, 2-nitro-7-{4-[2-(4-trifluoromethoxyphenoxymethyl)oxazol-4-yl]phenoxymethyl}-6,7-dihydro-5H-imidazo[2,1-b][1,3]oxazine] | 0.1 µg/mL (≈ 0.188 µM)
4 | O=[N+]([O-])c1cn2c(n1)OC(COc1ccc(-c3csc(-c4ccc(OC(F)(F)F)cc4)n3)cc1)CC2 (stereo not shown) [Example 56, 2-nitro-7-{4-[2-(4-trifluoromethoxyphenyl)thiazol-4-yl]phenoxymethyl}-6,7-dihydro-5H-imidazo[2,1-b][1,3]oxazine] | 0.012 µg/mL (≈ 0.0231 µM)
5 | O=[N+]([O-])c1cn2c(n1)OC(COc1ccc(N3CCN(CCCc4ccc(Oc5ccc(OC(F)(F)F)cc5)cc4)CC3)cc1)CC2 (stereo not shown) [Example 64, 2-nitro-7-[4-(4-{3-[4-(4-trifluoromethoxyphenoxy)phenyl]propyl}piperazin-1-yl)phenoxymethyl]-6,7-dihydro-5H-imidazo[2,1-b][1,3]oxazine] | ≤ 0.006 µg/mL
6 | O=[N+]([O-])c1cn2c(n1)OC(COc1ccc(N3CCC(CCOc4ccc(OC(F)(F)F)cc4)CC3)nc1)CC2 (stereo not shown) [Example 79, 2-nitro-7-(6-{4-[2-(4-trifluoromethoxyphenoxy)ethyl]piperidin-1-yl}pyridin-3-yloxymethyl)-6,7-dihydro-5H-imidazo[2,1-b][1,3]oxazine] | 0.012 µg/mL (≈ 0.0213 µM)
7 | CN(c1ccc(OC(F)(F)F)cc1)C1CCN(c2ccc(OC[C@H]3CCn4cc([N+](=O)[O-])nc4O3)cc2)CC1 [Example 90, N-methyl-N-{1-[4-((R)-2-nitro-6,7-dihydro-5H-imidazo[2,1-b][1,3]oxazin-7-ylmethoxy)phenyl]piperidin-4-yl}-N-(4-trifluoromethoxyphenyl)amine] | 0.012 µg/mL (≈ 0.0219 µM)
8 | O=[N+]([O-])c1cn2c(n1)OC(COc1ccc3c(c1)CCCN3CCCOc1ccc(OC(F)(F)F)cc1)CC2 (stereo not shown) [Example 143, 6-(2-nitro-6,7-dihydro-5H-imidazo[2,1-b][1,3]oxazin-7-ylmethoxy)-1-[3-(4-trifluoromethoxyphenoxy)propyl]-1,2,3,4-tetrahydroquinoline] | 0.1 µg/mL (≈ 0.182 µM)
9 | O=[N+]([O-])c1cn2c(n1)OC(COc1ccc(N3CCC(Oc4ccc(OC(F)(F)F)cc4)CC3)c(F)c1)CC2 (stereo not shown) [Example 147, 7-{3-fluoro-4-[4-(4-trifluoromethoxyphenoxy)piperidin-1-yl]phenoxymethyl}-2-nitro-6,7-dihydro-5H-imidazo[2,1-b][1,3]oxazine] | 0.05 µg/mL (≈ 0.0905 µM)
10 | O=[N+]([O-])c1cn2c(n1)O[C@@H](COc1ccc3nc(OCc4ccc(OC(F)(F)F)cc4)ccc3c1)CC2 [Example 153, 6-((R)-2-nitro-6,7-dihydro-5H-imidazo[2,1-b][1,3]oxazin-7-ylmethoxy)-2-(4-trifluoromethoxybenzyloxy)quinoline] | 0.024 µg/mL (≈ 0.0465 µM)
11 | O=[N+]([O-])c1cn2c(n1)O[C@@H](COc1ccc(N3CCN(Cc4ccc(OCc5ccc(C(F)(F)F)cc5)cc4)CC3)cc1)CC2 [Example 182, (R)-2-nitro-7-(4-{4-[4-(4-trifluoromethylbenzyloxy)benzyl]piperazin-1-yl}phenoxymethyl)-6,7-dihydro-5H-imidazo[2,1-b][1,3]oxazine] | ≤ 0.0015 µg/mL
12 | O=[N+]([O-])c1cn2c(n1)O[C@@H](COc1ccc(N3CCN(c4ccc(OCc5ccc(OC(F)(F)F)cc5)cc4)CC3)cc1)CC2 [Example 198, (R)-2-nitro-7-(4-{4-[4-(4-trifluoromethoxybenzyloxy)phenyl]piperazin-1-yl}phenoxymethyl)-6,7-dihydro-5H-imidazo[2,1-b][1,3]oxazine] | ≤ 0.0015 µg/mL
13 | O=[N+]([O-])c1cn2c(n1)O[C@@H](COc1ccc(OC3CCN(Cc4ccc(OCc5ccc(OC(F)(F)F)cc5)cc4)CC3)cc1)CC2 [Example 206, (R)-2-nitro-7-(4-{1-[4-(4-trifluoromethoxybenzyloxy)benzyl]piperidin-4-yloxy}phenoxymethyl)-6,7-dihydro-5H-imidazo[2,1-b][1,3]oxazine] | ≤ 0.0015 µg/mL
14 | O=[N+]([O-])c1cn2c(n1)O[C@H](COc1ccc(N3CCC(Cc4ccc(OCc5ccc(C(F)(F)F)cc5)cc4)CC3)cc1)CC2 [Example 254, (S)-2-nitro-7-(4-{4-[4-(4-trifluoromethylbenzyloxy)benzyl]piperidin-1-yl}phenoxymethyl)-6,7-dihydro-5H-imidazo[2,1-b][1,3]oxazine] | 0.0008 µg/mL (≈ 0.00128 µM)
15 | O=[N+]([O-])c1cn2c(n1)O[C@H](COc1ccc(-c3ccc(CN4CCC(Oc5ccc(OC(F)(F)F)cc5)CC4)cc3)cc1)CC2 [Example 282, (S)-2-nitro-7-{4′-[4-(4-trifluoromethoxyphenoxy)piperidin-1-ylmethyl]biphenyl-4-yloxymethyl}-6,7-dihydro-5H-imidazo[2,1-b][1,3]oxazine] | 0.006 µg/mL (≈ 0.00961 µM)
16 | O=[N+]([O-])c1cn2c(n1)O[C@H](COc1ccc(N3CCN(Cc4ccc(NCc5ccc(C(F)(F)F)cc5)cc4)CC3)cc1)CC2 [Example 290, N-(4-{4-[4-((S)-2-nitro-6,7-dihydro-5H-imidazo[2,1-b][1,3]oxazin-7-ylmethoxy)phenyl]piperazin-1-ylmethyl}phenyl)-N-(4-trifluoromethylbenzyl)amine] | 0.0008 µg/mL (≈ 0.00128 µM)
17 | C[C@@H]1CN(c2ccc(OC[C@H]3CCn4cc([N+](=O)[O-])nc4O3)cc2)CCN1Cc1ccc(OCc2ccc(C(F)(F)F)cc2)cc1 [Example 299, (R)-7-(4-{(R)-3-methyl-4-[4-(4-trifluoromethylbenzyloxy)benzyl]piperazin-1-yl}phenoxymethyl)-2-nitro-6,7-dihydro-5H-imidazo[2,1-b][1,3]oxazine] | 0.0008 µg/mL (≈ 0.00125 µM)
18 | O=[N+]([O-])c1cn2c(n1)O[C@@H](COc1ccc3c(c1)CCN(Cc1ccc(OCc4ccc(C(F)(F)F)cc4)cc1)C3)CC2 [Example 304, 6-((R)-2-nitro-6,7-dihydro-5H-imidazo[2,1-b][1,3]oxazin-7-ylmethoxy)-2-[4-(4-trifluoromethylbenzyloxy)benzyl]-1,2,3,4-tetrahydroisoquinoline] | 0.012 µg/mL (≈ 0.0202 µM)
19 | C[C@@H]1CN(Cc2ccc(Oc3ccc(OC(F)(F)F)cc3)cc2)CCN1c1ccc(OC[C@H]2CCn3cc([N+](=O)[O-])nc3O2)cc1 [Example 335, (R)-7-(4-{(R)-2-methyl-4-[4-(4-trifluoromethoxyphenoxy)benzyl]piperazin-1-yl}phenoxymethyl)-2-nitro-6,7-dihydro-5H-imidazo[2,1-b][1,3]oxazine] | 0.0015 µg/mL (≈ 0.00235 µM)
20 | O=[N+]([O-])c1cn2c(n1)OC(COc1ccc(C3CCN(Cc4ccc(OC(F)(F)F)cc4)CC3)cc1)CC2 (stereo not shown) [Example 364, 2-nitro-7-{4-[1-(4-trifluoromethoxybenzyl)piperidin-4-yl]phenoxymethyl}-6,7-dihydro-5H-imidazo[2,1-b][1,3]oxazine] | 0.024 µg/mL (≈ 0.0451 µM)
21 | O=[N+]([O-])c1cn2c(n1)O[C@@H](COc1ccc(N3CCN(C/C=C/c4ccc(C(F)(F)F)cc4)CC3)cc1)CC2 [Example 372, (R)-2-nitro-7-(4-{4-[(E)-3-(4-trifluoromethylphenyl)allyl]piperazin-1-yl}phenoxymethyl)-6,7-dihydro-5H-imidazo[2,1-b][1,3]oxazine] | 0.006 µg/mL (≈ 0.011 µM)
22 | O=[N+]([O-])c1cn2c(n1)O[C@@H](COc1ccc(-c3ccc(N4CCC(O)(C(F)(F)F)CC4)cc3)cc1)CC2 [Example 379, 1-[4′-((R)-2-nitro-6,7-dihydro-5H-imidazo[2,1-b][1,3]oxazin-7-ylmethoxy)biphenyl-4-yl]-4-trifluoromethylpiperidin-4-ol] | 0.1 µg/mL (≈ 0.193 µM)
23 | CC1(COc2ccc(N3CCC(CCc4ccc(OC(F)(F)F)cc4)CC3)cc2)CCn2cc([N+](=O)[O-])nc2O1 (stereo not shown) [Example 382, 7-methyl-2-nitro-7-(4-{4-[2-(4-trifluoromethoxyphenyl)ethyl]piperidin-1-yl}phenoxymethyl)-6,7-dihydro-5H-imidazo[2,1-b][1,3]oxazine] | 0.012 µg/mL (≈ 0.0214 µM)
24 | O=[N+]([O-])c1cn2c(n1)O[C@@H](COc1ccc(N3CCC(Cc4ccc(OC(F)(F)F)cc4)CC3)cc1)CC2 [Example 383, (R)-2-nitro-7-{4-[4-(4-trifluoromethoxybenzyl)piperidin-1-yl]phenoxymethyl}-6,7-dihydro-5H-imidazo[2,1-b][1,3]oxazine] | 0.003 µg/mL (≈ 0.00563 µM)
25 | O=[N+]([O-])c1cn2c(n1)O[C@@H](COc1ccc(N3CCC(CCCOc4cccc(C(F)(F)F)c4)CC3)cc1)CC2 [Example 395, (R)-2-nitro-7-(4-{4-[3-(3-trifluoromethylphenoxy)propyl]piperidin-1-yl}phenoxymethyl)-6,7-dihydro-5H-imidazo[2,1-b][1,3]oxazine] | 0.003 µg/mL (≈ 0.00535 µM)
26 | O=[N+]([O-])c1cn2c(n1)O[C@@H](COc1ccc(N3CCC(CCCc4ccc(C(F)(F)F)cc4)CC3)cc1)CC2 [Example 400, (R)-2-nitro-7-(4-{4-[3-(4-trifluoromethylphenyl)propyl]piperidin-1-yl}phenoxymethyl)-6,7-dihydro-5H-imidazo[2,1-b][1,3]oxazine] | ≤ 0.0004 µg/mL
27 | CC1(COc2ccc(N3CCN(C/C=C/c4ccc(OC(F)(F)F)cc4)CC3)cc2)CCn2cc([N+](=O)[O-])nc2O1 (stereo not shown) [Example 411, 7-methyl-2-nitro-7-(4-{4-[(E)-3-(4-trifluoromethoxyphenyl)allyl]piperazin-1-yl}phenoxymethyl)-6,7-dihydro-5H-imidazo[2,1-b][1,3]oxazine] | 0.006 µg/mL (≈ 0.0105 µM)

Same assay, conditions: 336 h, read-out: Minimum Inhibitory Concentration

Row | SMILES | MIC
28 | O=[N+]([O-])c1cn2c(n1)O[C@@H](COc1ccc(N3CCN(S(=O)(=O)C(F)(F)C(F)(F)C(F)(F)C(F)(F)F)CC3)cc1)CC2 [Example 380, (R)-2-nitro-7-{4-[4-(nonafluorobutane-1-sulfonyl)piperazin-1-yl]phenoxymethyl}-6,7-dihydro-5H-imidazo[2,1-b][1,3]oxazine] | 0.012 µg/mL (≈ 0.0187 µM)
